According to patent publication US10131652B2, “Pyrimidinyloxy benzene derivatives as herbicides” (E. I. DU PONT DE NEMOURS AND COMPANY, priority 2014, dated 2018):

What was measured:
Format in all cases: in vivo
[1] = tested on: ducksalad (Heteranthera limosa); assay: Test C flooded paddy test plant response; conditions: Flood, 250 g ai/ha; scale of 0 to 100 where 0 is no effect and 100 is complete control; 13 to 15 days
How it was run: (§1)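 Scored visually on a 0–100 scale (100 = complete control) against untreated plants 13 to 15 days after treatment in the greenhouse. Compounds went into paddy water of pots flooded to 3 cm, holding 2-leaf-stage plants.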

[2] = tested on: barnyardgrass (Echinochloa crus-galli); assay: Test C flooded paddy test plant response; conditions: Flood, 250 g ai/ha; scale of 0 to 100 where 0 is no effect and 100 is complete control; 13 to 15 days
How it was run: as §1

[3] = tested on: small-flower umbrella sedge (Cyperus difformis); assay: Test C flooded paddy test plant response; conditions: Flood, 250 g ai/ha; scale of 0 to 100 where 0 is no effect and 100 is complete control; 13 to 15 days
How it was run: as §1

rice (Oryza sativa) = assay: Test C flooded paddy test plant response; conditions: Flood, 250 g ai/ha; scale of 0 to 100 where 0 is no effect and 100 is complete control; 13 to 15 days
How it was run: as §1

[4] = tested on: Italian ryegrass (Lolium multiflorum); assay: Test B pre-/postemergence plant response
How it was run: (§2)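 Visual injury scores on a 0–100 scale (100 = complete control) relative to untreated plants, taken about 10 days post-treatment in greenhouse. Treatments were a directed preemergence soil spray and a postemergence spray at one- to two-leaf stage, using surfactant-containing solvent formulation.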

corn (Zea mays) = assay: Test B pre-/postemergence plant response
How it was run: as §2

[5] = tested on: barnyardgrass (Echinochloa crus-galli); assay: Test B pre-/postemergence plant response
How it was run: as §2

[6] = tested on: wheat (Triticum aestivum); assay: Test B pre-/postemergence plant response
How it was run: as §2

kochia (Kochia scoparia) = assay: Test B pre-/postemergence plant response
How it was run: as §2

[7] = tested on: giant foxtail (Setaria faberii); assay: Test B pre-/postemergence plant response
How it was run: as §2

[8] = tested on: ragweed (common ragweed, Ambrosia elatior); assay: Test B pre-/postemergence plant response
How it was run: as §2

[9] = tested on: pigweed (Amaranthus retroflexus); assay: Test B pre-/postemergence plant response
How it was run: as §2

[10] = tested on: galium (catchweed bedstraw, Galium aparine); assay: Test B postemergence plant response
How it was run: (§3)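 Visual injury ratings, 0 = no effect to 100 = complete control, versus untreated controls approximately 10 days after postemergence spraying in greenhouse. Plants were at one- to two-leaf stage, 2 to 10 cm tall, in loam soil/sand blend; a dash denotes no result.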

[11] = tested on: blackgrass (Alopecurus myosuroides); assay: Test B postemergence plant response
How it was run: as §3

[12] = 31 g ai/ha, Preemergence, 0 to 100 scale where 0 is no effect and 100 is complete control
[13] = 125 g ai/ha, postemergence, 0 to 100 scale, 0 no effect, 100 complete control
[14] = Postemergence, 31 g ai/ha, 0 to 100 scale (0 no effect, 100 complete control)
[15] = Preemergence, 125 g ai/ha, 0 to 100 scale (0 no effect, 100 complete control)
[16] = Postemergence, 500 g ai/ha, 0 to 100 scale (0 no effect, 100 complete control)
[17] = Preemergence, 500 g ai/ha, 0 to 100 scale where 0 is no effect and 100 is complete control
[18] = 31 g ai/ha, Postemergence, 0 to 100 scale, 0 no effect, 100 complete control
[19] = Preemergence, 31 g ai/ha, 0 to 100 scale (0 no effect, 100 complete control)
[20] = Preemergence, 125 g ai/ha, 0 to 100 scale where 0 is no effect and 100 is complete control

COc1ccnc(-c2ccccc2Oc2ncc(Cl)cn2)c1 [Compound 219]
Ducksalad plant response rating [1]: 0
Barnyardgrass plant response rating [2]: 0
Sedge, Umbrella plant response rating [3]: 0
Rice plant response rating (rice (Oryza sativa)): 0
Plant response rating, Ryegrass, Italian [4, 12]: 0
Plant response rating, Ryegrass, Italian [4, 13]: 0
Plant response rating, Ryegrass, Italian [4, 14]: 0
Ryegrass, Italian plant response rating [4, 15]: 0
Plant response rating, Corn (corn (Zea mays); [13]): 0
Plant response rating, Corn (corn (Zea mays); [14]): 0
Plant response rating, Barnyardgrass [5, 12]: 0
Plant response rating, Barnyardgrass [5, 13]: 0
Plant response rating, Barnyardgrass [5, 14]: 0
Barnyardgrass plant response rating [5, 15]: 0
Plant response rating, Wheat [6, 13]: 0
Plant response rating, Wheat [6, 14]: 0
Plant response rating, Kochia (kochia (Kochia scoparia); [12]): 0
Plant response rating, Kochia (kochia (Kochia scoparia); [13]): 0
Plant response rating, Kochia (kochia (Kochia scoparia); [14]): 0
Kochia plant response rating (kochia (Kochia scoparia); [15]): 0
Plant response rating, Foxtail, Giant [7, 12]: 0
Plant response rating, Foxtail, Giant [7, 13]: 0
Plant response rating, Foxtail, Giant [7, 14]: 0
Foxtail, Giant plant response rating [7, 15]: 0
Plant response rating, Ragweed [8, 12]: 0
Plant response rating, Ragweed [8, 13]: 30
Plant response rating, Ragweed [8, 14]: 20
Ragweed plant response rating [8, 15]: 0
Plant response rating, Pigweed [9, 12]: 0
Plant response rating, Pigweed [9, 13]: 10
Plant response rating, Pigweed [9, 14]: 10
Pigweed plant response rating [9, 15]: 0
Plant response rating, Galium [10, 13]: 30
Plant response rating, Galium [10, 14]: 20
Plant response rating, Blackgrass [11, 13]: 0
Plant response rating, Blackgrass [11, 14]: 0

FC(F)(F)Cn1cnc(-c2ccccc2Oc2ncc(Cl)cn2)c1 [Compound 161]
Ducksalad plant response rating [1]: 0
Barnyardgrass plant response rating [2]: 0
Sedge, Umbrella plant response rating [3]: 0
Rice plant response rating (rice (Oryza sativa)): 0
Plant response rating, Ryegrass, Italian [4, 13]: 0
Plant response rating, Ryegrass, Italian [4, 16]: 0
Ryegrass, Italian plant response rating [4, 15]: 0
Plant response rating, Ryegrass, Italian [4, 17]: 0
Plant response rating, Corn (corn (Zea mays); [13]): 0
Plant response rating, Corn (corn (Zea mays); [16]): 0
Plant response rating, Barnyardgrass [5, 13]: 0
Plant response rating, Barnyardgrass [5, 16]: 0
Barnyardgrass plant response rating [5, 15]: 0
Plant response rating, Barnyardgrass [5, 17]: 0
Plant response rating, Wheat [6, 13]: 0
Plant response rating, Wheat [6, 16]: 0
Plant response rating, Kochia (kochia (Kochia scoparia); [13]): 0
Plant response rating, Kochia (kochia (Kochia scoparia); [16]): 0
Kochia plant response rating (kochia (Kochia scoparia); [15]): 0
Plant response rating, Kochia (kochia (Kochia scoparia); [17]): 0
Plant response rating, Foxtail, Giant [7, 13]: 0
Plant response rating, Foxtail, Giant [7, 16]: 0
Foxtail, Giant plant response rating [7, 15]: 0
Plant response rating, Foxtail, Giant [7, 17]: 0
Plant response rating, Ragweed [8, 13]: 0
Plant response rating, Ragweed [8, 16]: 0
Ragweed plant response rating [8, 15]: 0
Plant response rating, Ragweed [8, 17]: 0
Plant response rating, Pigweed [9, 13]: 0
Plant response rating, Pigweed [9, 16]: 0
Pigweed plant response rating [9, 15]: 0
Plant response rating, Pigweed [9, 17]: 0
Plant response rating, Galium [10, 13]: 0
Plant response rating, Galium [10, 16]: 0
Plant response rating, Blackgrass [11, 13]: 0
Plant response rating, Blackgrass [11, 16]: 0

FC(F)(F)c1cc(-c2c(Cl)cccc2Oc2ncc(Br)cn2)on1 [Compound 127]
Ducksalad plant response rating [1]: 100
Barnyardgrass plant response rating [2]: 50
Sedge, Umbrella plant response rating [3]: 100
Rice plant response rating (rice (Oryza sativa)): 60
Plant response rating, Ryegrass, Italian [4, 12]: 30
Plant response rating, Ryegrass, Italian [4, 13]: 90
Ryegrass, Italian plant response rating [4, 15]: 90
Plant response rating, Corn (corn (Zea mays); [18]): 20
Plant response rating, Corn (corn (Zea mays); [13]): 50
Plant response rating, Barnyardgrass [5, 18]: 30
Plant response rating, Barnyardgrass [5, 12]: 70
Plant response rating, Barnyardgrass [5, 13]: 100
Barnyardgrass plant response rating [5, 15]: 90
Plant response rating, Wheat [6, 13]: 20
Plant response rating, Kochia (kochia (Kochia scoparia); [12]): 80
Plant response rating, Kochia (kochia (Kochia scoparia); [13]): 90
Kochia plant response rating (kochia (Kochia scoparia); [15]): 90
Plant response rating, Foxtail, Giant [7, 18]: 50
Plant response rating, Foxtail, Giant [7, 12]: 100
Plant response rating, Foxtail, Giant [7, 13]: 90
Foxtail, Giant plant response rating [7, 15]: 100
Plant response rating, Ragweed [8, 12]: 10
Plant response rating, Ragweed [8, 13]: 50
Ragweed plant response rating [8, 15]: 30
Plant response rating, Pigweed [9, 12]: 100
Plant response rating, Pigweed [9, 13]: 100
Pigweed plant response rating [9, 15]: 100
Plant response rating, Galium [10, 13]: 100
Plant response rating, Blackgrass [11, 18]: 30
Plant response rating, Blackgrass [11, 13]: 90

FC(F)(F)c1cc(-c2c(Cl)cccc2Oc2ncc(Cl)cn2)on1 [Compound 126]
Ducksalad plant response rating [1]: 100
Barnyardgrass plant response rating [2]: 95
Sedge, Umbrella plant response rating [3]: 100
Rice plant response rating (rice (Oryza sativa)): 75
Plant response rating, Ryegrass, Italian [4, 12]: 40
Plant response rating, Ryegrass, Italian [4, 13]: 100
Ryegrass, Italian plant response rating [4, 15]: 100
Plant response rating, Corn (corn (Zea mays); [18]): 20
Plant response rating, Corn (corn (Zea mays); [13]): 70
Plant response rating, Barnyardgrass [5, 18]: 80
Plant response rating, Barnyardgrass [5, 12]: 90
Plant response rating, Barnyardgrass [5, 13]: 100
Barnyardgrass plant response rating [5, 15]: 100
Plant response rating, Wheat [6, 13]: 40
Plant response rating, Kochia (kochia (Kochia scoparia); [12]): 80
Plant response rating, Kochia (kochia (Kochia scoparia); [13]): 90
Kochia plant response rating (kochia (Kochia scoparia); [15]): 90
Plant response rating, Foxtail, Giant [7, 18]: 60
Plant response rating, Foxtail, Giant [7, 12]: 100
Plant response rating, Foxtail, Giant [7, 13]: 90
Foxtail, Giant plant response rating [7, 15]: 100
Plant response rating, Ragweed [8, 12]: 10
Plant response rating, Ragweed [8, 13]: 40
Ragweed plant response rating [8, 15]: 10
Plant response rating, Pigweed [9, 12]: 100
Plant response rating, Pigweed [9, 13]: 100
Pigweed plant response rating [9, 15]: 100
Plant response rating, Galium [10, 13]: 100
Plant response rating, Blackgrass [11, 18]: 60
Plant response rating, Blackgrass [11, 13]: 90

Clc1cnc(Oc2ccccc2-c2cc(C(Cl)Cl)on2)nc1 [Compound 97]
Ducksalad plant response rating [1]: 0
Barnyardgrass plant response rating [2]: 0
Sedge, Umbrella plant response rating [3]: 50
Rice plant response rating (rice (Oryza sativa)): 0
Plant response rating, Ryegrass, Italian [4, 18]: 0
Plant response rating, Ryegrass, Italian [4, 13]: 0
Ryegrass, Italian plant response rating [4, 19]: 0
Plant response rating, Ryegrass, Italian [4, 20]: 0
Plant response rating, Corn (corn (Zea mays); [18]): 0
Plant response rating, Corn (corn (Zea mays); [13]): 20
Plant response rating, Barnyardgrass [5, 18]: 0
Plant response rating, Barnyardgrass [5, 13]: 20
Barnyardgrass plant response rating [5, 19]: 0
Plant response rating, Barnyardgrass [5, 20]: 0
Plant response rating, Wheat [6, 18]: 0
Plant response rating, Wheat [6, 13]: 0
Plant response rating, Kochia (kochia (Kochia scoparia); [18]): 60
Plant response rating, Kochia (kochia (Kochia scoparia); [13]): 90
Kochia plant response rating (kochia (Kochia scoparia); [19]): 0
Plant response rating, Kochia (kochia (Kochia scoparia); [20]): 30
Plant response rating, Foxtail, Giant [7, 18]: 0
Plant response rating, Foxtail, Giant [7, 13]: 30
Foxtail, Giant plant response rating [7, 19]: 10
Plant response rating, Foxtail, Giant [7, 20]: 30
Plant response rating, Ragweed [8, 18]: 20
Plant response rating, Ragweed [8, 13]: 50
Ragweed plant response rating [8, 19]: 0
Plant response rating, Ragweed [8, 20]: 0
Plant response rating, Pigweed [9, 18]: 60
Plant response rating, Pigweed [9, 13]: 90
Pigweed plant response rating [9, 19]: 20
Plant response rating, Pigweed [9, 20]: 50
Plant response rating, Galium [10, 18]: 10
Plant response rating, Galium [10, 13]: 50
Plant response rating, Blackgrass [11, 18]: 0
Plant response rating, Blackgrass [11, 13]: 0
